We go through 91 molecules from a melting point compilation (Tetko et al.; mined from patent text by program, amines drawn as free bases though some values may be those of a salt).

SMILES strings stand for the structures. Some results are limits rather than exact numbers.

Usually melting point stands for the temperature, or range, at which the solid turns liquid. Take `COc1ccc(C(F)(F)F)cc1Nc1cccn2nc(Nc3cccc(N4CCN(C)CC4)c3)nc12`: the melting point lay in the range of 198 to 200 °C.
The molecule `Cc1noc(CC(N)=O)n1` came in with a melting point of 77 to 77.5 °C.
On to `c1c[nH]c(C(c2ccc[nH]2)C23CC4CC(C2)CC(C(c2ccc[nH]2)c2ccc[nH]2)(C4)C3)c1`, for which the melting point lay in the range of 110 to 112 °C.
Molecule `CC(=O)c1cc(C)c(OCC(=O)O)c(C)c1` registered a melting point of 166 to 167 °C.
`OCCc1c[nH]c(-c2ccccc2OCc2ccccc2)n1` had a melting point of 131 to 133 °C.
Consider `CCCCC(CCCC)n1c(=O)sc2c(=O)[nH]c(N)nc21`, for which the melting point is greater than 175 °C.
On to `CCOC(=O)Cc1ccc(OCCCCl)c(OC)c1`, for which the melting point lay within 36 to 38 °C.
As to `O=[N+]([O-])c1cccc(S(=O)(=O)NC(CO)(CO)CO)c1`, the melting point lay within 98 to 99 °C.
To `CCCNC1=CC(=O)C(NCCC)=C2C1=Nc1ccccc1S2(=O)=O` belongs 174 to 176 °C; to `CC(=O)c1cc(C)c2c(n1)-c1ccccc1C2=O`, 170 to 172 °C; to `CS(=O)(=O)c1ccc(-n2nc(C(F)(F)F)cc2-c2ccc(-c3ccco3)cc2F)cc1F`, 156 to 160 °C.
On to `COc1ccc(C=CCCl)cc1`, for which the melting point is 70 to 72 °C.
As for `Nc1nccnc1C(=O)NCCc1ncc[nH]1`, the melting point is 204 to 208 °C.
For `Cc1cccc(-c2nc3cccnn3c2-c2ccnc(N)n2)c1`, the melting point lay in the range of 250 to 251 °C.
For the molecule `Nc1ncnc2c1c(-c1ccc(NS(=O)(=O)c3ccccc3)c(O)c1)cn2C1CCCC1`, the melting point was 265 to 267 °C.
`O=C(C=Cc1cccnc1)N1CCc2c([nH]c3ccccc23)C1c1ccc2c(c1)OCO2` (stereo unspecified) gave a melting point of 240 °C.
Regarding `CCOC(=O)c1cc(C(=O)NC)nc(C(=O)NC)c1NC`, the melting point was 169 to 170 °C.
As to `O[C@H]1c2cc(OC(c3ccccc3)c3ccccc3)ccc2OC[C@H]1Oc1cccnc1` (relative stereo), the melting point is 169 to 170 °C.
`CC(=O)Nc1c(OC(C)=O)cc(C(=O)O)cc1[N+](=O)[O-]` yielded a melting point of 196 to 201 °C.
For the molecule `O=C1c2ccccc2C(O)(c2ccc(Cl)cc2)N1Cc1ccc(Cl)cc1` (stereo unspecified), the melting point fell in the range of 156 to 157 °C.
`Cc1oc(-c2ccc3ccccc3c2)nc1/C=C/c1ccc(CO)cc1` displayed a melting point of 173 to 174 °C.
In turn, `NCc1ccc(CN2CCN(c3ccccc3)CC2)cc1` registered a melting point of 68 to 70 °C.
As to `CCC(C(=O)c1ccc(N(CCN(CC)CC)S(C)(=O)=O)cc1)c1ccccc1` (stereo unspecified), the melting point lay in the range of 76 to 77 °C.
To `c1ccc(-c2cnc(NC3=NCC4(CN5CCC4CC5)O3)s2)cc1` (stereo unspecified) belongs 187 to 189 °C; to `COc1ccc2c(c1)C1(CC#N)CCC(=O)C=C1CC2` (stereo unspecified), 133 to 134 °C.
Consider `NC(=O)c1ccc(C(=O)N2Cc3cccn3Cc3ccccc32)cc1`, for which the melting point was in the range of 226 to 228 °C.
Under `NC(=O)c1n[nH]c(S(=O)(=O)c2ccc(Br)cc2)n1` stands 130 to 136 °C.
Molecule `COc1ccc(N2CCN(c3ccc(N4C(=O)NC(C)(C)C4=O)cc3)CC2)cc1` registered a melting point of 255 °C.
`COc1cc2oc(=O)c(CCN3CCN(c4ccccc4OC)CC3)c(C)c2cc1O` showed a melting point of 235 to 237 °C.
The molecule `CCS(=O)c1ccc(-c2coc3ccc(-c4nnc(C)o4)cc23)c(Cl)c1` (stereo unspecified) displayed a melting point of 151 to 152 °C.
Under `COc1cc2c(cn1)OCC21C(=O)Nc2ccccc21` (stereo unspecified) stands 231 to 232 °C.
The molecule `O=S1(=O)CCCS(=O)(=O)C1(CCCCl)c1ccccc1` came in with a melting point of 182 °C.
`O=C(Cc1cccc(C(F)(F)F)c1)Cn1cncn1` had a melting point of 85 to 87 °C.
Turning to `N#CC1c2cc(OCc3ccccc3)cc(OCc3ccccc3)c2C=CN1C(=O)c1ccccc1` (stereo unspecified), the melting point lay within 123 to 125 °C.
Consider `O=Cc1cc2c3c(ccc4c3c1CCC4)CCC2`, for which the melting point was 102 to 105 °C.
On to `COC(=O)Cc1nc2nc(C)cc(Cl)n2n1`, for which the melting point is 111 to 112 °C.
Consider `Cn1cc(C2=C(c3ccncc3)C(=O)NC2=O)c2ccccc21`, for which the melting point lay within 332 to 334 °C.
`CCc1nc2c(Br)cccc2cc1C` came in with a melting point of 54 °C.
Under `CC(C)C1COCc2nc3c(N)nc4cc(OCCN5CCOCC5)ccc4c3n21` (stereo unspecified) stands 194 to 195 °C; under `N=C(NCCCc1c[nH]cn1)N[N+](=O)[O-]`, 156 to 158 °C.
Under `CS(=O)(=O)OCc1cc(-c2ccc3c(c2)CCO3)nn(Cc2ccccc2Cl)c1=O` stands 118 to 119 °C.
Molecule `OC1CSC(Oc2cncc(-c3ccccc3F)c2)C(O)C1O` (stereo unspecified) returned a melting point of 206 to 208 °C.
As for `O=C1CC(CCN2CCC(c3c[nH]c4ccccc34)CC2)c2ccccc2N1` (stereo unspecified), the melting point is 115 to 117 °C.
Under `Cc1cc(-n2ccnc2)c2cccc(OCc3c(Cl)ccc(S(=O)(=O)N4CCC[C@H]4C(=O)O)c3Cl)c2n1` stands 172 °C; under `O=C(NC(=O)c1ccc(F)cc1Cl)Nc1ccc(C(F)(F)F)c(F)c1`, 181 °C; under `COc1cc(C(O)CN2CCN(C(c3ccccc3)c3ccccc3)CC2)cc(OC)c1OC` (stereo unspecified), 173 °C.
Molecule `CC(=O)Nc1ccn(C2OC(CO[Si](c3ccccc3)(c3ccccc3)C(C)(C)C)CC2F)c(=O)n1` (stereo unspecified) yielded a melting point of 81 to 86 °C.
Under `CC(=O)OC1CC(C)(C)N(OC(=NC2CCCCC2)N(C(=O)c2ccccc2)C2CCCCC2)C(C)(C)C1` stands 147 to 152 °C; under `N#CC(C(=O)Nc1ccc(F)cc1F)C(=O)c1ccc[nH]1` (stereo unspecified), 169 to 171 °C; under `COc1cccc(C(CN(C)C)c2nnc3n2-c2ccc(Cl)cc2C(c2ccccc2)=NC3)c1` (stereo unspecified), 139 to 140 °C.
As to `Cc1cc2c(C)c(O)c(O)c(C(=O)O)c2cc1Cc1ccccc1`, the melting point lay in the range of 179 to 180 °C.
Consider `O=Nc1c(-c2ccccc2)nc2ncccn12`, for which the melting point was in the range of 223 to 225 °C.
On to `COc1c(N2CC(O)C2)c(F)cc2c(=O)c(C(=O)O)cn(C3CC3)c12`, for which the melting point is 246 to 250 °C.
In the case of `CC1(C)CCC(N2c3ccccc3Oc3ccc(Cl)cc32)=N1`, the melting point fell in the range of 118 to 120 °C.
On to `COC(=O)c1cc2nc(C)[nH]c2cc1C(=O)OC`, for which the melting point was 151 to 152 °C.
The molecule `OCc1c(C(F)(F)F)[nH]c2ccccc12` came in with a melting point of 106 °C.
In the case of `CCCCNc1cc(C(=O)O)cc(S(N)(=O)=O)c1-c1ccccc1`, the melting point is 134 to 136 °C.
To `O=C(NC(=O)c1ccccc1)NC1CCC(=O)c2sccc21` (stereo unspecified) belongs 187 to 190 °C; to `CC#CC(C)(C)NC(=O)C(CC)Oc1cncc(Cl)c1` (stereo unspecified), 87 to 89 °C.
In turn, `COc1ccc2c(-c3ccccc3F)csc2c1Cl` yielded a melting point of 136 to 137 °C.
Turning to `COc1cc(NC(=O)CCCCCN2CCN(c3ccc(Cl)c(Cl)c3)CC2)c2nccc(C)c2c1`, the melting point was in the range of 99 to 100 °C.
In the case of `Cc1ccccc1C(=O)C=CC(=O)O`, the melting point was in the range of 82 to 83 °C.
Turning to `CN1CCN(c2c(F)c(NCc3ccccc3)c3c(=O)c(C(=O)O)cn(C4CC4)c3c2F)CC1`, the melting point was 132 to 133 °C.
Take `c1ccc(CN2CCC3(CC2)SC(c2ccccc2)c2ccccc23)cc1` (stereo unspecified): the melting point lay in the range of 144 to 145 °C.
`OC(c1ccccc1)(c1ccc(F)cc1)c1ncc[nH]1` (stereo unspecified) gave a melting point of 199 to 200 °C.
The molecule `CSc1cc(=O)c2ccc(F)cc2s1` registered a melting point of 120 to 121 °C.
In turn, `COc1cc(C=O)ccc1OCc1csc(N2CCCCC2)n1` displayed a melting point of 129 to 130 °C.
The molecule `O=[PH](O)Cc1ccc(P(c2ccccc2)c2ccccc2)cc1` returned a melting point of 40 °C.
`Cn1c(-c2cnc(-c3ccccc3)nc2)cnc1-c1ccccc1`: the melting point is 211 °C.
Consider `COc1cc(C=O)ccc1OCCN1c2ccccc2Sc2ccccc21`, for which the melting point is 130 °C.
Turning to `CCOC(=O)C1CCN(c2nnc(NCc3ccc4c(c3)OCO4)c3cnccc23)CC1`, the melting point fell in the range of 119 to 120 °C.
For `O=C(Nc1nccs1)C(CC1CCCC1)c1ccc(-c2ccncc2)cc1` (stereo unspecified), the melting point was 165 to 167 °C.
In turn, `CC1C(=O)Oc2c1cccc2S(=O)(=O)c1ccccc1Cl` (stereo unspecified) returned a melting point of 94 to 96 °C.
In turn, `COc1cc2ccccc2cc1O` gave a melting point of 108 to 109 °C.
As to `CS(=O)(=O)c1ccc(-c2cc(=O)n(C3CCCCC3)nc2-c2ccc(F)cc2)cc1`, the melting point was 86 to 90 °C.
Under `Nc1nc(N)c2ncn(OCCCCP(=O)(O)O)c2n1` stands 295 to 297 °C; under `O=S(=O)(F)c1ccccc1S(=O)(=O)N1CCC1`, 93 °C; under `CCOC(=O)C1=C(C)NC(CO)=C(C(=O)OCC)C1c1ccccc1Cl` (stereo unspecified), 143 °C.
The molecule `COc1ccccc1C=CCCCCCC(=O)O` yielded a melting point of 42 to 43 °C.
The molecule `CCOC(=O)Cc1ccc(NC(=O)C(COc2ccc(Cl)cc2)NS(=O)(=O)c2ccc(I)cc2)cc1` (racemic) yielded a melting point of 162 to 163 °C.
For `COc1ccc(-c2cc(=O)c3c(OCC(O)CO)cc(OCC(O)CO)cc3o2)cc1O` (stereo unspecified), the melting point was 204 °C.
With `Cc1nc(N2CCN(Cc3ccc(C(F)(F)F)nc3)C2=O)sc1C(N)=O`, the melting point was in the range of 225 to 228 °C.
`O=[N+]([O-])c1ccc(O)c(C(F)(F)F)c1` came in with a melting point of 103 to 104 °C.
Consider `COc1cc(C)cc2c(=O)oc3c(c12)C(=O)c1cccc(O)c1C3=O`, for which the melting point lay in the range of 282 to 292 °C.
Molecule `O=C(CC1CCCCC1)Nc1c(Cl)ccc2nc(N3CCC(NS(=O)(=O)C(F)(F)F)CC3)ccc12` displayed a melting point of 187 to 189 °C.
Regarding `COc1ccc2nc(Cl)cc(C)c2c1`, the melting point was 144 to 145 °C.
To `CCCCCCCc1cnc(-c2ccc(C(=O)Oc3ccc(-c4ncc(CCCCC)cn4)cc3)cc2)nc1` belongs 97 °C; to `COC(=O)C1CCCc2c(noc2-c2ccc(Cl)cc2)C1` (stereo unspecified), 94 to 95 °C; to `Cc1cc(C)n2nc(S(=O)(=O)Cl)nc2c1`, 125 to 126 °C.
`COC(=O)C(C(=O)OC)N(C(N)=O)c1ccc(C=NO)cc1` gave a melting point of 162 °C.
For `CCCCn1c(C(=O)c2cc(C)cc(C=CC#N)c2)c(C(C)C)c(=O)[nH]c1=O`, the melting point lay in the range of 164 to 165 °C.
